Where no end group is shown, it is not given here.
Columns and labels:
MG63 cells [1] = assay: p53 protein expression level, immunofluorescence staining quantified with ImageJ, osteosarcoma cells; assay type: cell-based, human; set-up: P53: unit not given here; details: for P53: Table 9, in association with SiRNA Integrin alpha 3+SiRNA Integrin beta 1 (SEQ ID NO: 141 to 163); for p53 (%): Table 4, cyclic GFR-binding peptide in association with SiRNA Integrin alpha 3 and SiRNA Integrin beta 1, 400 ng/mL, 24 hours
Procedure: (§1) The following starting materials and reagents were used: • Type-I collagen sponge was obtained from Sigma®. • PBS 1× was obtained from Gibco®. • MilliQ water: is water characterised in terms of resistivity (typically 18.2 MΩ·cm at 25° C.). • Low glucose Dulbecco's Modified Eagle Medium (DMEM) was obtained from Invitrogen® • Minimum Essential Medium Eagle without ascorbic acid (αMEM) was obtained from Invitrogen®. • All of the cell culture experiments were carried out without any serum in the medium for the first 8 hours of culture. • Osteosarcoma cells: MG63 cells were obtained from ATCC®. These cells were cultured in DMEM (Eagle's Minimum Essential Medium) medium supplemented with 10% fetal calf serum (FCS) and 1% penicillin/streptomycin. All cells were used at a low passage number (passage 10), were subconfluently cultured and were seeded at 10^4 cells/cm^2 for the purpose of the experiments. • Chondrosarcoma cells Hs819.T cells were obtained from ATCC®. These cells were cultured in DMEM (Eagle's Minimum Essential Medium) medium supplemented with 10% fetal calf serum (FCS) and 1% penicillin/streptomycin. All cells were used at a low passage number (passage 10), were subconfluently cultured and were seeded at 10^4 cells/cm^2 for the purpose of the experiments. • Rhabdomyosarcoma cells: A-673 cells were obtained from ATCC®. These cells were cultured in DMEM (Eagle's Minimum Essential Medium) medium supplemented with 10% fetal calf serum (FCS) and 1% penicillin/streptomycin. All cells were used at a low passage number (passage 10), were subconfluently cultured and were seeded at 10^4 cells/cm^2 for the purpose of the experiments. • Adenocarcinoma cells: HCC4006 cells were obtained from ATCC®. These cells were cultured in RPMI-1640 medium (obtained from ATCC®) supplemented with 10% fetal calf serum (FCS) and 1% penicillin/streptomycin. All cells were used at a low passage number (passage 10), were subconfluently cultured and were seeded at 10^4 cells/cm^2 for the purpose of the experiments. • CMFDA is a Cell Tracker Green obtained from Invitrogen®. • DAPI was obtained from Sigma®. • Fetal bovine serum (FBS) was obtained from Gibco®. • Penicillin/streptomycin was obtained from Invitrogen®. • The AlamarBlue® assay was obtained from Molecular Probes®. • Anti phospho-p53 antibody was obtained from Santa Cruz Biotechnology®, • Anti pRB antibody was obtained from Santa Cruz Biotechnology®, • Monoclonal anti-integrin (extracellular domain) αv, α5, α3, α4, β1, β3, β5 and β9 antibodies were obtained from Santa Cruz Biotechnology®, • Cell cytoskeletal filamentous actin (F-actin) was visualized by Alexa Fluor® 488 phalloidin Sigma® labeling. • Monoclonal anti-vinculin antibody (clone hVIN-1, produced in mouse) was obtained from Sigma®.
(§2) • All of the peptides were synthetized using conventional solution and/or solid phase peptide synthesis methods. • All of the experiments were performed with a concentration of 400 ng/mL of GFR-binding compound(s) as defined herein. • All cell culture experiments were performed with cultures on plastic coated with type-I collagen in order to mimic the physiological conditions of the human body. • The compositions of pharmaceutical compositions used in the examples below are summarized in the following table:
(§3) The cells were first fixed for 20 min with 4% paraformaldehyde/PBS at 4° C. After fixation, the cells were permeabilized in PBS containing 1% Triton X-100 for 15 min. Protein immunofluorescent visualization was performed by first treating the cells with 1% (v/v) specific monoclonal antibodies for 1 hour at 37° C. Then the samples were incubated with Alexa Fluor® 568 or 647 (F(ab′)2 fragment of IgG(H+L)) during 30 min at room temperature. The cell nuclei were counterstained in 20 ng/mL DAPI for 10 min at room temperature.
(§4) For this type of quantification the freeware image analysis ImageJ® software was used. […]

MG63 cells [2] = assay: pRB phosphorylation level, immunofluorescence staining quantified with ImageJ, osteosarcoma cells; assay type: cell-based, human; details: MG63 cells; for pRB: Table 9, in association with SiRNA Integrin alpha 3+SiRNA Integrin beta 1 (SEQ ID NO: 141 to 163); for pRB (%): Table 4, cyclic GFR-binding peptide in association with SiRNA Integrin alpha 3 and SiRNA Integrin beta 1, 400 ng/mL, 24 hours
Procedure: as §1, §2, §3, §4

growth factor receptors = assay: cell-based or functional assay

Row | Molecule | P53 (MG63 cells [1]) | pRB (MG63 cells [2]) | p53 (%) (MG63 cells [1]) | pRB (%) (MG63 cells [2]) | p-Smad1/5/8 (%) (growth factor receptors)
1 | CPKPSSAPTQLSAISTLYLDDSSNVILKNYQMIVVRA (Non-cyclic GFR-binding peptide) [SEQ ID NO: 159] | 44 | 9 |  |  | 
2 | CPSSAPTQLSATSVLYYDDSSNVILRKHRQHNK (Non-cyclic GFR-binding peptide) [SEQ ID NO: 150] | 41 | 11 |  |  | 
3 | CRNVQCRPTQVQLSAISTLYLEIVRKKPLKNYQTLEDH (Non-cyclic GFR-binding peptide) [SEQ ID NO: 149] | 35 | 12 |  |  | 
4 | CSIPKASSVPTELSATSVLYYDEYDEKVVLRKHEMVVEG (Non-cyclic GFR-binding peptide) [SEQ ID NO: 153] | 39 | 10 |  |  | 
5 | CTVPKPSSAPTQLSPISVLYKDDSSNVILKYHYNMVVRASGSH (Non-cyclic GFR-binding peptide) [SEQ ID NO: 147] | 37 | 8 |  |  | 
6 | GTPGPKVPKPSSAPTQLSAISTLYLDEYDKVVLKNYQNMAVR (Non-cyclic GFR-binding peptide) [SEQ ID NO: 163] | 41 | 7 |  |  | 
7 | SRVAARSVKMAKVGGGGGGGKEVQVAAEEHGGGGGG (not fully specified; also: cyclic peptide) [SEQ ID NO: 38213] |  |  | 49 | 21 | 
8 | SRVLLRPVQMRKIDKGVVTYKKATVLLEEHDKGVVTY (not fully specified; also: cyclic peptide) [SEQ ID NO: 38216] |  |  | 41 | 11 | 
9 | TPTSSSPINTLYFDDMGVPTYGKIPSSVVDDEYDKVV (not fully specified; also: cyclic peptide) [SEQ ID NO: 38207] |  |  | 41 | 13 | 
10 | TQVAARPVQTRKIDDMGVPTKKATVAAEDHDKGVVTY (not fully specified; also: cyclic peptide) [SEQ ID NO: 38217] |  |  | 42 | 9 | 
11 | VPEAASSLSMLFFEIVRKKPIFLKVYPAATVEDKGVVTY (not fully specified; also: cyclic peptide) [SEQ ID NO: 38201] |  |  | 40 | 19 | 
12 | VPQAAEPLPMLYYDKGVVTYEQLSNAAVRSDKGVVTY (also: cyclic peptide) [SEQ ID NO: 38210] |  |  | 40 | 12 | 
13 | VPQQQEPLTTLYYDEYDKVVEQLSNQQVKSNDKQQII (also: cyclic peptide) [SEQ ID NO: 38211] |  |  | 47 | 14 | 
14 | VPTAAEPISMLYLDEYDKVVKFKYEAAAVSNDKQQII (also: cyclic peptide) [SEQ ID NO: 38206] |  |  | 36 | 8 | 
15 | VPTAASAISILYLDAANNVVLKNYQAAVVEDKGVVTY (also: cyclic peptide) [SEQ ID NO: 38200] |  |  | 41 | 17 | 
16 | VPTDDSATSTLYYDKGVVTYLRKHRDDEHSDKGVVTY (also: cyclic peptide) [SEQ ID NO: 38214] |  |  | 48 | 18 | 
17 | VPTGGEPLTTLYYNDKQQIIEQLSNGGEHSDDMGVPT (also: cyclic peptide) [SEQ ID NO: 38215] |  |  | 39 | 16 | 
18 | VPTMMSNITTQIMRIKPHQGQHIGEMSMMQHNDEYDKVV (also: cyclic peptide) [SEQ ID NO: 38212] |  |  | 51 | 14 | 
19 | VPTSSSPISTLYIDKGVVTYLKYHYSSVAEDEYDKVV (not fully specified; also: cyclic peptide) [SEQ ID NO: 38205] |  |  | 40 | 16 | 
20 | VPTVVSAISTLYLRIKPHQGQHLKNYQVVVVENDKQQII (also: cyclic peptide) [SEQ ID NO: 38202] |  |  | 42 | 9 | 
21 | VPTVVSPISMLYIDDMGVPTYKQYEVVVVEDDMGVPT (also: cyclic peptide) [SEQ ID NO: 38208] |  |  | 39 | 9 | 
22 | WWFWGKVPKPSSAPTQLSAISTLYLDEYDKVVLKNYQNMVVR (Non-cyclic GFR-binding peptide) [SEQ ID NO: 162] | 39 | 8 |  |  | 
23 | NDEGLECVPTEERPVQVRKIRIKPHQGQKKATVFLQHNK (not fully specified) [GFR-binding compound SEQ ID NO: 54] |  |  |  |  | 41
24 | NDEGLECVPTEERPVQVRKIRIKPHQGQKKATVFLQHNK (not fully specified) [GFR-binding compound SEQ ID NO: 59] |  |  |  |  | 34
25 | RNVQCRPTQLEPLPIVYYEIVRKKPEQLSNTLEDHLA (not fully specified) [GFR-binding compound SEQ ID NO: 56] |  |  |  |  | 47
26 | RNVQCRPTQLEPLPIVYYEIVRKKPEQLSNTLEDHLA (not fully specified) [GFR-binding compound SEQ ID NO: 61] |  |  |  |  | 44
27 | VPTHHSAISTLYLELAGEKPLKNYQFLQHNK [GFR-binding compound SEQ ID NO: 57] |  |  |  |  | 38
28 | ASASPSSVPQDLEPLTILYYVGRTPKVEQLSNMV [GFR-binding compound SEQ ID NO: 55] |  |  |  |  | 32
29 | VSQDLSAISTLYLKIVRKEPLKNYQEMVEE [GFR-binding compound SEQ ID NO: 58] |  |  |  |  | 49
